Measured values from PMC6199744, “Development of Chemical Proteomics for the Folateome and Analysis of the Kinetoplastid Folateome” (ACS Infectious Diseases, 2018).

Test system: L. major lysate proteins
Test: Multitargeted bead mixture chemoproteomics, single concentration competition, proteome-wide
Format: binding
Settings: for fold change: vehicle control = 1

In the case of `Nc1nc2c(c(=O)[nH]1)N(C=O)C(CNc1ccc(C(=O)N[C@@H](CCC(=O)O)C(=O)O)cc1)CN2` (stereo partly drawn) [LEU, leucovorin], the “fold change vs vehicle control” value (protein LMJF.15.0690 HY[…], CONSERVED) was 1.14, the fold change (protein LMJF.15.1010 GLUTAMATE DEHYDROGENASE) was 0.98 and the fold change (protein LMJF.15.1190 HYPOTHETICAL PROTEIN, CONSERVED (cyclic nucleotide-binding domain containing protein, putative)) was 0.96. For the same molecule, the “fold change vs vehicle control” value (protein LMJF.16.0520 HYPOTHETICAL PROTEIN, CONSERVED) was 1.1, the “fold change vs vehicle control” value (protein LMJF.16.0540 ASPARTATE CARBAMOYLTRANSFERASE, PUTATIVE) was 0.98 and the “fold change relative to vehicle control” value (protein LMJF.16.0760, TRANSALDOLASE, PUTATIVE) was 1.22. For the same molecule, the “fold change vs vehicle control” value (protein LMJF.16.0940 DYNEIN LIGHT CHAIN, PUTATIVE) was 1.06, the “fold change relative to vehicle control” value (protein LMJF.16.1180, COATOMER DELTA SUBUNIT-LIKE PROTEIN) was 1.21 and the “fold change relative to vehicle control” value (protein LMJF.16.1320, CYTOCHROME C, PUTATIVE) was 2.28. For the same molecule, the “fold change relative to vehicle control” value (protein LMJF.16.1420, HY[…], CONSERVED) was 1.01, the “fold change relative to vehicle control” value (protein LMJF.17.0081, […] 1-ALPHA) was 1.09 and the “fold change relative to vehicle control” value (protein LMJF.18.0270, GLYCOGEN SYNTHASE KINASE, PUTATIVE) was 0.57. The fold change (protein LMJF.18.0580 P[…]-COA HYDRATASE, PUTATIVE) was 1.02, the “fold change relative to vehicle control” value (protein LMJF.18.0680, CITRATE SYNTHASE, PUTATIVE) was 1.15 and the “fold change vs vehicle control” value (protein LMJF.18.1010 DYNEIN LIGHT CHAIN 2B, CYTOPLASMIC, PUTATIVE) was 0.99. The “fold change vs vehicle control” value (protein LMJF.18.1210 PROLYL-TRNA SYNTHETASE, PUTATIVE,BI[…]-TRNA SYNTHETASE, PUTATIVE) was 1.38, the “fold change vs vehicle control” value (protein LMJF.18.1370 HEAT SHOCK PROTEIN, PUTATIVE) was 0.99 and the fold change (protein LMJF.19.0200 ADP,ATP CARRIER PROTEIN 1, MIT[…], PUTATIVE) was 1.01. The “fold change vs vehicle control” value (protein LMJF.19.1120 PROTEASOME REGULATORY NON-ATP-ASE SUBUNIT, PUTATIVE) was 0.93, the “fold change vs vehicle control” value (protein LMJF.19.1160 HYPOTHETICAL PROTEIN, CONSERVED) was 0.87 and the “fold change vs vehicle control” value (protein LMJF.19.1560 INOSINE-5'-MONOPHOSPHATE DEHYDROGENASE) was 1.06. For the same molecule, the “fold change relative to vehicle control” value (protein LMJF.19.1620, POTASSIUM VOLTAGE-GATED CHANNEL, PUTATIVE) was 1.08, the “fold change vs vehicle control” value (protein LMJF.20.1280 SMALL MYRISTOYLATED PROTEIN 4, PUTATIVE) was 0.97 and the fold change (protein LMJF.21.0810 METHIONYL-TRNA SYNTHETASE, PUTATIVE) was 1.03. For the same molecule, the fold change (protein LMJF.21.1450 ARGININE N-METHYLTRANSFERASE, TYPE II, PUTATIVE) was 1.01, the “fold change vs vehicle control” value (protein LMJF.21.1830 […] 5 SUBUNIT, PUTATIVE,20S […] ALPHA 5, (PUTATIVE)) was 1.06 and the fold change (protein LMJF.22.0230 AMINO ACID PERMEASE, PUTATIVE) was 0.86. For the same molecule, the “fold change vs vehicle control” value (protein LMJF.22.0570 PROTEASOME REGULATORY ATPASE SUBUNIT 1, PUTATIVE) was 0.98, the “fold change vs vehicle control” value (protein LMJF.22.0730 HY[…], CONSERVED) was 1.05 and the fold change (protein LMJF.22.0770 NADH-CYTOCHROME B5 REDUCTASE, PUTATIVE) was 1.02. The “fold change relative to vehicle control” value (protein LMJF.23.0020, HY[…], CONSERVED) was 1.09, the “fold change relative to vehicle control” value (protein LMJF.23.0040, PEROXIDOXIN) was 1.41 and the “fold change relative to vehicle control” value (protein LMJF.23.0080, HY[…], CONSERVED) was 1.07. The fold change (protein LMJF.23.0210 ATP-BINDING CASSETTE PROTEIN SUBFAMILY C, MEMBER 1, PUTATIVE) was 0.88, the fold change (protein LMJF.23.0370 CYTOCHROME C OXIDASE SUBUNIT 10, PUTATIVE) was 0.88 and the “fold change relative to vehicle control” value (protein LMJF.23.0540, ACETYL-COA SYNTHETASE, PUTATIVE) was 1.24. The “fold change vs vehicle control” value (protein LMJF.23.0560 KINESIN, PUTATIVE) was 1.03, the “fold change vs vehicle control” value (protein LMJF.23.1410 HY[…], CONSERVED) was 1.01 and the “fold change relative to vehicle control” value (protein LMJF.24.0070, HYPOTHETICAL PROTEIN, CONSERVED) was 0.98. For the same molecule, the fold change (protein LMJF.24.0140 ANKYRIN/TPR REPEAT PROTEIN) was 0.96, the fold change (protein LMJF.24.0400 HY[…], CONSERVED (TPR repeat, putative)) was 1.02 and the “fold change relative to vehicle control” value (protein LMJF.24.1510, IGE-DEPENDENT HISTAMINE-RELEASING FACTOR, PUTATIVE) was 1.54. For the same molecule, the “fold change relative to vehicle control” value (protein LMJF.24.1630, SUCCINATE DEHYDROGENASE FLAVOPROTEIN, PUTATIVE) was 1.06, the “fold change relative to vehicle control” value (protein LMJF.24.2060, TRANSKETOLASE) was 0.92 and the “fold change relative to vehicle control” value (protein LMJF.25.0010, BETA […] TRANSFERASE) was 1.41. The “fold change relative to vehicle control” value (protein LMJF.25.0910, CYCLOPHILIN A) was 2.65, the “fold change vs vehicle control” value (protein LMJF.25.1130 […] OXIDASE VII, PUTATIVE) was 1.08 and the “fold change relative to vehicle control” value (protein LMJF.25.1180, ATPASE BETA SUBUNIT, PUTATIVE) was 1.04. The “fold change vs vehicle control” value (protein LMJF.25.1610 HY[…], CONSERVED) was 1.03, the “fold change vs vehicle control” value (protein LMJF.25.1620 HYPOTHETICAL PROTEIN, CONSERVED) was 0.97 and the fold change (protein LMJF.25.2340 SERINE/THREONINE-PROTEIN KINASE, PUTATIVE,PROTEIN KINASE, PUTATIVE) was 0.76. For the same molecule, the “fold change relative to vehicle control” value (protein LMJF.26.0630, HY[…], CONSERVED) was 1.23, the “fold change vs vehicle control” value (protein LMJF.26.1240 HEAT SHOCK PROTEIN 70-RELATED PROTEIN) was 1.1 and the fold change (protein LMJF.26.1710 CYTOCHROME C OXIDASE SUBUNIT V, PUTATIVE) was 0.98. The “fold change vs vehicle control” value (protein LMJF.26.2480 CDP-DIACYLGLYCEROL--INOSITOL 3-PHOSPHATIDYLTRANSFERASE, PUTATIVE) was 0.94, the “fold change vs vehicle control” value (protein LMJF.26.2560 HYPOTHETICAL PROTEIN, CONSERVED) was 0.91 and the “fold change vs vehicle control” value (protein LMJF.27.0190 […] 7 SUBUNIT, PUTATIVE) was 1.06. For the same molecule, the fold change (protein LMJF.27.0650 HYPOTHETICAL PROTEIN, CONSERVED) was 0.98, the fold change (protein LMJF.27.0700 HYPOTHETICAL PROTEIN, CONSERVED) was 0.69 and the “fold change vs vehicle control” value (protein LMJF.27.0760 GTP-binding protein homologue) was 1.15. For the same molecule, the “fold change vs vehicle control” value (protein LMJF.27.1060 CYSTEINE DESULFURASE, PUTATIVE) was 1.03, the “fold change vs vehicle control” value (protein LMJF.27.1110 MITOCHONDRIAL RNA BINDING PROTEIN 1,GBP21, MRP1) was 0.96 and the fold change (protein LMJF.27.1250 HYPOTHETICAL PROTEIN, CONSERVED (Serine-threonine kinase receptor-associated protein, putative)) was 0.88. The “fold change relative to vehicle control” value (protein LMJF.27.1390, 60S ACIDIC RIBOSOMAL SUBUNIT PROTEIN, PUTATIVE) was 1.11, the fold change (protein LMJF.27.1460 PROTEASOME REGULATORY NON-ATP-ASE SUBUNIT 3, PUTATIVE) was 0.97 and the “fold change vs vehicle control” value (protein LMJF.28.0110 […] 3 SUBUNIT, PUTATIVE) was 1.08.
